Laboratory results published in patent US10202604B2, “Methods of using microRNA-141” (Stemirna Therapeutics Co., Ltd., priority 2016, dated 2019).
“And” between values parts separate entries of the source, which are not always exact repeats. Identical values can stand only once.

How the values were obtained:
CD44hi PC3 cells = experiment: Dorsal prostate implantation, tumor growth and lung metastasis; assay type: in vivo, NOD/SCID mice; conditions: miR-141 via lentiviral infection; 100,000 cells into dorsal prostate
Method: FACS-purified CD44^hi luciferase/GFP double-tagged PC3 cells were infected with Lenti-141 or Lenti-ctl (MOI 10) and 100,000 cells each were injected into the DP of NOD/SCID mice (n=9). Tumor growth and metastasis were monitored using bioluminescence imaging (IVIS). FIGS. 2A-2B show the representative images and quantification (in total photon flux) of primary tumors before termination of the experiment. FIGS. 2C-2D show the representative images (FIG. 2C) and quantification (FIG. 2D) of lung metastasis with the primary tumors covered. […] CD44^+ Du145 cells were infected with Lenti-ctl or Lenti-141 (MOI 10; 72 h) and cells were then injected into the DP of male NOD/SCID mice. Mice were terminated at day 56 and organs including lung were harvested for analyzing metastasis. Shown were representative IHC images of humanspecific Ki-67 staining. […] LAPC9-GFP cells were infected with TRIPZ-NS or TRIPZ-141 inducible lentivirus (MOI 10, 72 h) and CD44^+ cells were purified out by FACS. 100,000 cells each were injected into the DP of NOD/SCID mice and, from day 16 on, two groups of mice were treated with Dox (200 mg/kg body weight in feed). Tumor volumes were measure twice weekly (FIG. 2F). Mice were terminated at day 40 and endpoint tumors were harvested and weighted (FIG. 2G; incidence indicated in bars). […]

Du145 cells = experiment: Whole-genome RNA-Seq; assay type: cell-based, human
Method: (§1) Du145 and LAPC9 cells were transfected with 30 nM of miR-141 or negative control oligos for 48 h. Total RNA was purified using RNeasy mini kit (Qiagen, Hilden, Germany). The overexpression of miR-141 was validated by qPCR. 100 ng of total RNA samples was then converted to cDNA using a NuGEN Ovation RNA-Seq System v2 according to the manufacturer's protocol (NuGEN, San Carlos, Calif.). NuGEN-amplified double-stranded cDNAs were fragmented into ˜180 base pair (bp) using a Covaris system (Covaris, Woburn, Mass.). Fragmented cDNAs were run on a SPRI-TE library construction system (Beckman Coulter, Fullerton, Calif.), and during the adaptor ligation step, uniquely indexed NEXTflex adapters (Bioo Scientific, Austin, Tex.) were used for each of the samples to allow for multiplexing. Adapter-ligated libraries were enriched by PCR using a KAPA library amplification kit (KAPA Biosystems, Wilmington, Mass.) (1 cycle at 98° C. for 45 seconds; 7 cycles at 98° C. for 15 seconds, 65° C. for 30 seconds, and 72° C. for 30 seconds; 1 cycle at 72° C. for 1 minute), and purified with AMPureXP beads (Beckman Coulter, Pasadena, Calif.). The purified libraries were quantified using a KAPA library quantification kit. The libraries were loaded on cBot (Illumina, San Diego, Calif.) at final concentration of […] to perform cluster generation, followed by 2×76 bp sequencing on HiSeq 2000 (Illumina, San Diego, Calif.).
(§2) Sequencing reads were mapped to reference human genome sequence ([…] [hg19] assembly by TopHat (Version 2.0.6). The number of fragments in each known gene from RefSeq database (downloaded from UCSC Genome Browser on Mar. 9, 2012) was enumerated using htseq-count from HTSeq package (version 0.5.4p9). Genes with less than 10 fragments in all the samples were removed before differential expression analysis. The differential expression between conditions was statistically assessed by R/Bioconductor package edgeR (version 3.0.8). Genes with FDR (false discovery rate) of ≤0.05 and >200 bp were called as differentially expressed.
(§3) For Gene Ontology (GO) analysis, IPA (Ingenuity Pathway Analysis; Qiagen, Valencia, Calif.) and GSEA (Gene Set Enrichment Analysis; Broad Institute) were performed. The standard procedure was followed (www.broadinstitute.org/gsea/doc/GSEAUserGuideFrame.html) as described by GSEA user guide and used curated gene set C2 of the Molecular Signature Database (MSigDB) version 4.0 to compute overlaps between gene set and gene sets in MSigDB. Some of the datasets presented in the text are annotated here.
(§4) The authors' in-house scripts (12) was utilized for sequence alignment and peak calling. The miR-200a CLIP-Seq results containing the binding information were further extracted and merged with Du145 or LAPC9 RNA-Seq data by gene symbol.

LAPC9 cells = experiment: Whole-genome RNA-Seq; assay type: cell-based, human
Method: as §1, §2, §3, §4

[1] = merged with miR-200a CLIP-Seq data

miR-141: miR-141 mirVana mimics (Life Technologies); microRNA-141 oligonucleotide may have SEQ ID NO: 1; in some experiments over-expressed by lentiviral vectors (UAACACUGUCUGGUAAAGAUGG; listed as RNA, further chemistry not given here) [miR-141 mirVana mimics (Life Technologies); in some experiments over-expressed by lentiviral vectors]
lung metastasis (CD44hi PC3 cells): less
primary tumors (size) (CD44hi PC3 cells): smaller
TGFB2, ZEB1, MAP2K4, and VIM expression (Du145 cells): downregulated
ZEB2, TWIST2, and SANI2 expression (Du145 cells): inconsistent changes
epithelial markers including E-Cadherin, Claudin family members and cytokeratins (KRT) (Du145 cells): strongly induced
down-regulated genes (Du145 cells; FDR<0.05): 949
up-regulated genes (Du145 cells; FDR<0.05): 1,304
transcripts having binding sites to miR-200a/miR-141 (Du145 cells; RNA-Seq DEGs merged with miR-200a CLIP-Seq data): 532
down-regulated transcripts having binding sites to miR-200a/miR-141 (Du145 cells; [1]): 263
upregulated transcripts having binding sites to miR-200a/miR-141 (Du145 cells; [1]): 269
TGFB2, ZEB1, MAP2K4, VIM, NYH10, FN1 and many other mesenchymal genes (LAPC9 cells): downregulated
epithelial markers including E-Cadherin, Claudin members and KRTs (LAPC9 cells): prominently upregulated
down-regulated genes (LAPC9 cells; FDR<0.05): 459
up-regulated genes (LAPC9 cells; FDR<0.05): 265
putative direct targets of miR-141 (genes) (LAPC9 cells; RNA-Seq merged with miR-200a CLIP-Seq data): 157 and ~150
